Test results: patent US20110306606A1, “NOVEL 2,6-SUBSTITUTED-3-NITROPYRIDINE DERIVATIVE, METHOD FOR PREPARING SAME, AND PHARMACEUTICAL COMPOSITION INCLUDING SAME” (priority 2008, published 2011)
Like-named read-outs stand apart in the source and are kept apart here.

Key:
[1] = test system: Osteoblasts (Calvarial cells); assay: Alkaline phosphatase (ALP) activity in osteoblasts (Calvarial cells); type: cell-based, mice; settings: Mus musculus, 72 h; 1 μM compound, 3 days, Calvarial cell; read-out: ALP activity (1 μM, % of Control) Calvarial cell
Description: Differentiation and activity of osteoblasts were indirectly evaluated by measuring an ALP activity having a close relationship with osteogenesis.
Osteoblasts (Calvarial cells) prepared in Experimental Example 1 and MC3T3-E1 cells (available from RIKEN Cell Bank, Japan) were collected in α-MEM supplemented with 10% FBS, followed by cell counting. The cells were dispensed into 24-well cultureware at a density of 2×10^4 cells/well. After culturing of the cells for 24 hours, the culture media were discarded and replaced with fresh media in which test compounds were diluted to a concentration of 1 μM (1 mL/well). In addition, the vehicle control group containing 0.1% DMSO was also treated. […] When the experiment was terminated, the supernatant was removed and the cells were washed three times with cold phosphate buffer at 4°. 0.2% Triton X-100 was added to the washed cells which were then subjected to three cycles of freezing at −70° and thawing at room temperature for the complete lysis of cells. The cell extracts were pooled and centrifuged to collect the cell supernatant which was used for the measurement of ALP activity and proteins. The protein concentration was measured using a BCA assay kit (manufactured by Sigma-Aldrich). For the measurement of ALP activity, p-nitrophenylphosphate was added to the cell supernatant which was then incubated at 37° for 30 minutes, and the reaction was terminated with the addition of 50 μL of 0.2N sodium hydroxide. The standard curve was plotted at the absorbance of 405 nm using p-nitrophenol as a standard material and then the absorbance of test materials thus reacted was measured to determine the production amount of p-nitrophenol.
The ALP activity was calculated by dividing the amount of p-nitrophenol produced from each test material by the protein amount and the reaction time. Therefore, the unit of ALP activity was given in terms of p-nitrophenol/μg protein/min. The results are given in Tables 28-1 and 28-2 where the ALP activity unit of each test material was given in terms of % change through the comparison between the individual test materials and the vehicle control group.

[2] = test system: Osteoblasts (Calvarial cells); settings: ICR, mouse, 72 h, 1 μM
[3] = test system: formation of osteoclasts in co-culture of bone marrow cells and osteoblasts; assay: Osteoclastogenesis inhibition via co-culture system (TRAP staining); type: cell-based, mice; settings: 1 μM compound, 7 days co-culture, TRAP-positive multinucleated osteoclasts vs vehicle control
Description: Osteoclastogenesis inhibitory effects of the compounds of the present invention were evaluated via a co-culture system (Reference: Endocrinology 137(1996), 2187 to 2190, E. Jimi et al.). A specific experimental method is as follows.
1) Preparation of Bone Marrow Cells and Osteoblasts
Femora and tibia were aseptically dissected from 6 to 8-week-old male ddY mice to harvest bone marrow cells by a conventional method using a syringe. In brief, tissues were removed from the dissected bone, the bone ends were cut off with scissors, and the bone marrow was isolated by pushing a medium-containing syringe (23G) against the one end of the cut bone. The isolated bone marrow was subjected to repeated piston movement of a syringe such that single cells were obtained (Reference: Endocrinology 123(1988), 2600 to 2602, Takahashi et al.). After removal of red blood cells within the bone marrow, the bone marrow cells recovered by centrifugation were placed in an α-MEM supplemented with 10% fetal bovine serum (FBS), followed by counting of nucleated cells and then were immediately used for a co-culture system.
2) Osteoclastogenesis Inhibition Experiment Via Co-Culture System
As the medium used for a co-culture system, a differentiation medium with the addition of differentiation factors 1α,25-dihydroxyvitamin D3 (10^−8M) and dexamethasone (10^−8M) to a-MEM supplemented with 10% FBS was used for the induction of osteoclastogenesis. First, the compounds dissolved in dimethyl sulfoxide (DMSO) at a concentration of 1 mM were diluted to 2 μM using the above-mentioned differentiation medium. As a vehicle control group, 0.2% (v/v) DMSO was added to the medium. 100 μL/well of each medium was added to 96-well plates. In addition, the above prepared bone marrow cells and osteoblasts were plated onto 96-well plates at a density of 1×10^5 cells/50 μL/well and 3×10^3 cells/50 μL/well, respectively. The total volume/well was 200 μL and the final compound concentration was 1 μM. The control group was 0.1% DMSO. The cells were cultured with exchange of the culture media with fresh media containing differentiation factors and test materials at an interval of 2 to 3 days.
7 days after culturing of cells, the formation of multinucleated osteoclasts was confirmed by microscopic examination, the medium was removed from the wells and then the cells were fixed in a 10% phosphate-buffered formalin solution. The degree of formation of mature osteoclasts was measured taking advantage of the characteristics of osteoclasts showing a positive reaction to a tartrate-resistant acid phosphatase (TRAP) staining solution. The TRAP staining solution was prepared in a manner such that naphthol AS-MS phosphate as a substrate and a coloring agent (Fast Red Violet LB salt) were dissolved in N,N-dimethylformamide, and a 0.1N NaHCO3 buffer solution containing 50 mM of tartaric acid was added thereto. Among the TRAP-positive cells under a light microscope, multinucleated osteoclasts having 6 to 7 nuclei were regarded as mature osteoclasts.
The degree of inhibition of osteoclastogenesis was calculated according to the following equation 1. The results are summarized in Table 27 below (Experiments were carried out for 4 wells/experimental group (n=4), and the results are given in terms of mean±standard deviation)
Inhibition of osteoclastogenesis(%)=(1−numbers of osteoclasts observed in experimental group/numbers of osteoclasts observed in vehicle control group)×100(%) [Equation 1]

[4] = test system: Osteoblasts (Calvarial cells); assay: Cytotoxicity test (MTT); settings: 1 μM compound, 72 hours, in comparison with vehicle control

Row | Structure (SMILES) | activity at 1 µM [1] [%] | Cell viability (%) Calvarial cell [2] [%] | Osteoclastogenesis inhibition (%) 1 μM [3] [%] | Cell viability (%) Calvarial cell [4] [%]
1 | CC(C)Nc1ccc([N+](=O)[O-])c(Nc2ccc(-n3ccnc3)cc2)n1 [Compound 87, 2-[4-(imidazol-1-yl)phenylamino]-6-(isopropylamino)-3-nitropyridine] | 116 | 101 | – | –
2 | CN(CC1OCCO1)c1ccc([N+](=O)[O-])c(Nc2ccc(-n3ccnc3)cc2)n1 [Compound 89] | – | – | 73 | 89
3 | O=[N+]([O-])c1ccc(N2CCC(O)CC2)nc1Nc1ccc(-n2ccnc2)cc1 [Compound 90, 2-[4-(imidazol-1-yl)phenylamino]-6-(4-hydroxypiperidino)-3-nitropyridine] | 161 | 106 | – | –
4 | CC(=O)c1cccc(Nc2nc(N3CCC(O)CC3)ccc2[N+](=O)[O-])c1 [Compound 99, 2-(3-acetylphenylamino)-6-(4-hydroxypiperidino)-3-nitropyridine] | 189 | 104 | – | –
5 | CC(=O)c1cccc(Nc2nc(NC(C)(C)C)ccc2[N+](=O)[O-])c1 [Compound 104, 2-(3-acetylphenylamino)-6-(t-butylamino)-3-nitropyridine] | 112 | 97 | – | –
6 | CC(=O)c1cccc(Nc2nc(N3CCN(C)CC3)ccc2[N+](=O)[O-])c1 [Compound 105, 2-(3-acetylphenylamino)-6-(4-methylpiperazin-1-yl)-3-nitropyridine] | 121 | 90 | – | –
7 | CC(=O)c1cccc(Nc2nc(N3CCOCC3)ccc2[N+](=O)[O-])c1 [Compound 107, 2-(3-acetylphenylamino)-6-morpholino-3-nitropyridine] | 121 | 97 | – | –
8 | CC(C)CNc1ccc([N+](=O)[O-])c(Nc2ccc(N3CCOCC3)cc2)n1 [Compound 110, 2-(4-morpholinophenylamino)-6-(isobutylamino)-3-nitropyridine] | 143 | 112 | – | –
9 | Cc1nc(-c2ccc(Nc3nc(NC(C)C)ccc3[N+](=O)[O-])cc2)cs1 [Compound 133, 2-[4-(2-methylthiazol-4-yl)phenylamino]-6-(isopropylamino)-3-nitropyridine] | 122 | 102 | – | –
10 | Cc1nc(-c2ccc(Nc3nc(-n4ccnc4C(C)C)ccc3[N+](=O)[O-])cc2)cs1 [Compound 137, 2-[4-(2-methylthiazol-4-yl)phenylamino]-6-[(2-isopropyl)imidazol-1-yl]-3-nitropyridine] | 122 | 92 | – | –
11 | Cc1nc(-c2ccc(Nc3nc(NC(C)(C)C)ccc3[N+](=O)[O-])cc2)cs1 [Compound 140, 2-[4-(2-methylthiazol-4-yl)phenylamino]-6-(t-butylamino)-3-nitropyridine] | 118 | 102 | – | –
12 | NC1CCN(c2ccc([N+](=O)[O-])c(Nc3ccc(-c4csc(C5CCCCC5)n4)cc3)n2)CC1 [Compound 161, 2-[4-(2-cyclohexylthiazol-4-yl)phenylamino]-6-(4-aminopiperidino)-3-nitropyridine] | 121 | 98 | – | –
13 | CCN(CC)c1ccc(Nc2nc(NCC(C)C)ccc2[N+](=O)[O-])cc1F [Compound 177, 2-[(3-fluoro-4-diethylamino)phenylamino]-6-(isobutylamino)-3-nitropyridine] | – | – | 61 | 107
14 | O=[N+]([O-])c1ccc(NCc2cccnc2)nc1Nc1ccc(N2CCOCC2)c(F)c1 [Compound 197, 2-[(3-fluoro-4-morpholino)phenylamino]-6-[(3-pyridyl)methylamino]-3-nitropyridine] | – | – | 81 | 95
15 | O=[N+]([O-])c1ccc(NCc2ccncc2)nc1Nc1ccc(N2CCOCC2)c(F)c1 [Compound 198, 2-[(3-fluoro-4-morpholino)phenylamino]-6-[(4-pyridyl)methylamino]-3-nitropyridine] | – | – | 84 | 96
16 | NC1CCN(c2ccc([N+](=O)[O-])c(Nc3ccc(N4CCOCC4)c(F)c3)n2)CC1 [Compound 202, 2-[(3-fluoro-4-morpholino)phenylamino]-6-(4-aminopiperidino)-3-nitropyridine] | – | – | 90 | 96
17 | O=[N+]([O-])c1ccc(NCc2cccnc2)nc1Nc1ccc(N2CCSCC2)c(F)c1 [Compound 209, 2-[(3-fluoro-4-thiomorpholino)phenylamino]-6-[(3-pyridyl)methylamino]-3-nitropyridine] | – | – | 85 | 99
18 | O=[N+]([O-])c1ccc(NCc2ccncc2)nc1Nc1ccc(N2CCSCC2)c(F)c1 [Compound 210, 2-[(3-fluoro-4-thiomorpholino)phenylamino]-6-[(4-pyridyl)methylamino]-3-nitropyridine] | – | – | 70 | 105
19 | CN1CCN(c2ccc([N+](=O)[O-])c(Nc3ccc(N4CCSCC4)c(F)c3)n2)CC1 [Compound 212, 2-[(3-fluoro-4-thiomorpholino)phenylamino]-6-(4-methylpiperazin-1-yl)-3-nitropyridine] | – | – | 85 | 100
20 | NC1CCN(c2ccc([N+](=O)[O-])c(Nc3ccc(N4CCSCC4)c(F)c3)n2)CC1 [Compound 214, 2-[(3-fluoro-4-thiomorpholino)phenylamino]-6-(4-aminopiperidino)-3-nitropyridine] | – | – | 98 | 103
21 | O=[N+]([O-])c1ccc(NCc2cccnc2)nc1Nc1ccc(N2CCNCC2)c(F)c1 [Compound 220, 2-[(3-fluoro-4-piperazino)phenylamino]-6-[(3-pyridyl)methylamino]-3-nitropyridine] | – | – | 82 | 93
22 | O=[N+]([O-])c1ccc(NCc2ccncc2)nc1Nc1ccc(N2CCNCC2)c(F)c1 [Compound 221, 2-[(3-fluoro-4-piperazino)phenylamino]-6-[(4-pyridyl)methylamino]-3-nitropyridine] | – | – | 89 | 91
